Assay results reported in patent US9062124B2, “GIP-based mixed agonists for treatment of metabolic disorders and obesity” (priority 2008, dated 2015).
Where a SMILES comes first, the peptide text is derived from it. [ ]: non-standard residue; d: D form. Aib = CC(C)(N)C(=O)O

Columns and labels:
Assay type in all cases: cell-based
glucagon receptor = molecular target: T1, glucagon receptor (Homo sapiens, UniProt P47871); experiment: cAMP synthesis functional assay (firefly luciferase reporter in HEK293 cells), glucagon receptor; conditions: for EC50: Glucagon Receptor EC50, cAMP luciferase reporter assay as in Example 16; for Glucagon Receptor relative activity: relative to the standard (Std.) EC50 of the same run
T1 construct: expressed in transfected cells; host or cells: HEK293

GLP-1 receptor = molecular target: T2, GLP-1 receptor (Homo sapiens, UniProt P43220); experiment: cAMP synthesis functional assay (firefly luciferase reporter in HEK293 cells), GLP-1 receptor; conditions: for EC50: GLP-1 Receptor EC50, cAMP luciferase reporter assay as in Example 16; for GLP-1 Receptor relative activity: relative to the standard (Std.) EC50 of the same run
T2 construct: expressed in transfected cells; host or cells: HEK293

GIP receptor = molecular target: T3, GIP receptor (Homo sapiens, UniProt P48546); experiment: cAMP synthesis functional assay (firefly luciferase reporter in HEK293 cells), GIP receptor; conditions: for GIP Receptor relative activity: relative to the standard (Std.) EC50 of the same run; for EC50: GIP Receptor EC50, cAMP luciferase reporter assay as in Example 16
T3 construct: expressed in transfected cells; host or cells: HEK293
T3 sequence (P48546 22-466): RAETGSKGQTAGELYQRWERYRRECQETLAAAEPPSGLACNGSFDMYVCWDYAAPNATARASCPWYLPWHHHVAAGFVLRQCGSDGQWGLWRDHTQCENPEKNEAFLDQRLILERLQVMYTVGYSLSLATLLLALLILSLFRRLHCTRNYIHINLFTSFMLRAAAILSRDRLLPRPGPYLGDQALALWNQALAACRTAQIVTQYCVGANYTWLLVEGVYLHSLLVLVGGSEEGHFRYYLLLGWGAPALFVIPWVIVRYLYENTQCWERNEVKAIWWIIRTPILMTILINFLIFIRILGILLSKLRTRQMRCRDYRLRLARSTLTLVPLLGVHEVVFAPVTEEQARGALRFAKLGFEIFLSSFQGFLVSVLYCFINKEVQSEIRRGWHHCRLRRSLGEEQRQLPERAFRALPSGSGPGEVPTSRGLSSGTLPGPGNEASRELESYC

[1] = tested on: glucagon receptor, GLP-1 receptor or GIP receptor; experiment: Agonist profile across receptors assigned from the cAMP reporter assay data; conditions: assigned from the in vitro EC50 data of Tables 1-4

T1 sequence (P47871 26-477): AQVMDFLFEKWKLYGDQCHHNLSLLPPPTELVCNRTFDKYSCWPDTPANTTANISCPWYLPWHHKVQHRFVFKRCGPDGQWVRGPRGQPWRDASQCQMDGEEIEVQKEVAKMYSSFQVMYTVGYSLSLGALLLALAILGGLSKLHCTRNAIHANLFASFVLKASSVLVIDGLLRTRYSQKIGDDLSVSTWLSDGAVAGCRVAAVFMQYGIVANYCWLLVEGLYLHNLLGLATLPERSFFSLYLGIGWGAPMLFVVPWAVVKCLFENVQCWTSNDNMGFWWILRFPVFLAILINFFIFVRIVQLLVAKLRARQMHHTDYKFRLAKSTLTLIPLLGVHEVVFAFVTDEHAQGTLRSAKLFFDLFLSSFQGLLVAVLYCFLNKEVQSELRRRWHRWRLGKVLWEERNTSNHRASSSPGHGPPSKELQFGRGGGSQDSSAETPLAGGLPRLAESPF
T2 sequence (P43220 24-463, species assumed): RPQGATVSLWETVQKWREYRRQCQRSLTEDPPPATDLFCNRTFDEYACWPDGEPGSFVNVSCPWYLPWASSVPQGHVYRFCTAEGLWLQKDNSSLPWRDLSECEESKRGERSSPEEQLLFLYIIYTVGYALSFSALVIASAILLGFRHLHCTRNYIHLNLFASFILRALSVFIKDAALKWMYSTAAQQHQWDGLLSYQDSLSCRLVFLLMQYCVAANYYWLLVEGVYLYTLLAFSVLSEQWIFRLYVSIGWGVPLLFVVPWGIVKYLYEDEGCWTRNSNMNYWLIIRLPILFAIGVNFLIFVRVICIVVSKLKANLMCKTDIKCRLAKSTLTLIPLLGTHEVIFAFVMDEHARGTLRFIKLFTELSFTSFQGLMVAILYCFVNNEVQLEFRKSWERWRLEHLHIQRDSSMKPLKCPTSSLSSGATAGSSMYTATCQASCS

Row | Compound | EC50 (glucagon receptor) [nM] | Glucagon Receptor relative activity (glucagon receptor) [%] | EC50 (GLP-1 receptor) [nM] | GLP-1 Receptor relative activity (GLP-1 receptor) [%] | GIP Receptor relative activity (GIP receptor) [%] | receptor activity profile (glucagon / GLP-1 / GIP agonism) [1] | EC50 (GIP receptor) [nM]
1 | CC[C@H](C)[C@H](NC(=O)[C@H](CO)NC(=O)[C@H](Cc1ccc(O)cc1)NC(=O)[C@H](CC(=O)O)NC(=O)[C@H](CO)NC(=O)[C@@H](NC(=O)[C@H](Cc1ccccc1)NC(=O)[C@@H](NC(=O)CNC(=O)[C@H](CCC(N)=O)NC(=O)C(C)(C)NC(=O)[C@@H](N)Cc1ccc(O)cc1)[C@@H](C)O)[C@@H](C)O)C(=O)N[C@@H](Cc1ccc(O)cc1)C(=O)N[C@@H](CC(C)C)C(=O)N[C@@H](CC(=O)O)C(=O)N[C@@H](CCCCN)C(=O)N[C@@H](CCC(N)=O)C(=O)N[C@@H](C)C(=O)N[C@@H](C)C(=O)NC(C)(C)C(=O)N[C@@H](CCC(=O)O)C(=O)N[C@@H](Cc1ccccc1)C(=O)N[C@H](C(=O)N[C@@H](CC(N)=O)C(=O)N[C@@H](Cc1c[nH]c2ccccc12)C(=O)N[C@@H](CC(C)C)C(=O)N[C@@H](CC(C)C)C(=O)N[C@@H](C)C(=O)NCC(=O)NCC(=O)N1CCC[C@H]1C(=O)N[C@@H](CO)C(=O)N[C@@H](CO)C(=O)NCC(=O)N[C@@H](C)C(=O)N1CCC[C@H]1C(=O)N1CCC[C@H]1C(=O)N1CCC[C@H]1C(=O)N[C@@H](CO)C(=O)N[C@@H](CCCCN)C(N)=O)C(C)C [mt-280] (H-Y[Aib]QGTFTSDYSIYLDKQAA[Aib]EFVNWLLAGGPSSGAPPPSK-NH2; N-terminus assumed) | 0.0677 | 74.74 | 0.0126 | 153.17 | 159.06 | exhibited activity at the GIP, GLP-1, and glucagon receptors | –
2 | CC[C@H](C)[C@H](NC(=O)[C@H](CO)NC(=O)[C@H](CCCCN)NC(=O)[C@H](CC(=O)O)NC(=O)[C@H](CO)NC(=O)[C@@H](NC(=O)[C@H](Cc1ccccc1)NC(=O)[C@@H](NC(=O)CNC(=O)[C@H](CCC(=O)O)NC(=O)C(C)(C)NC(=O)[C@@H](N)Cc1ccc(O)cc1)[C@@H](C)O)[C@@H](C)O)C(=O)N[C@@H](Cc1ccc(O)cc1)C(=O)N[C@@H](CC(C)C)C(=O)N[C@@H](CC(=O)O)C(=O)N[C@@H](CCCCN)C(=O)N[C@@H](CCC(N)=O)C(=O)N[C@@H](C)C(=O)N[C@@H](C)C(=O)NC(C)(C)C(=O)N[C@@H](CCC(=O)O)C(=O)N[C@@H](Cc1ccccc1)C(=O)N[C@H](C(=O)N[C@@H](CC(N)=O)C(=O)N[C@@H](Cc1c[nH]c2ccccc12)C(=O)N[C@@H](CC(C)C)C(=O)N[C@@H](CC(C)C)C(=O)N[C@@H](C)C(=O)NCC(N)=O)C(C)C [mt-285] (H-Y[Aib]EGTFTSDKSIYLDKQAA[Aib]EFVNWLLAG-NH2; N-terminus assumed) | 12.6 | 0.23 | 0.784 | 0.75 | 36.43 | exhibited activity at only the GIP receptor | –
3 | CCCCCCCCCCCCCC(=O)NCCCC[C@H](NC(=O)[C@H](CO)NC(=O)[C@@H]1CCCN1C(=O)[C@@H]1CCCN1C(=O)[C@@H]1CCCN1C(=O)[C@H](C)NC(=O)CNC(=O)[C@H](CO)NC(=O)[C@H](CO)NC(=O)[C@@H]1CCCN1C(=O)CNC(=O)CNC(=O)[C@H](C)NC(=O)[C@H](CC(C)C)NC(=O)[C@H](CC(C)C)NC(=O)[C@H](Cc1c[nH]c2ccccc12)NC(=O)[C@H](CS)NC(=O)[C@@H](NC(=O)[C@H](Cc1ccccc1)NC(=O)[C@H](CCC(=O)O)NC(=O)C(C)(C)NC(=O)[C@H](C)NC(=O)[C@H](C)NC(=O)[C@H](CCC(N)=O)NC(=O)[C@H](CCCCN)NC(=O)[C@H](CC(=O)O)NC(=O)[C@H](CC(C)C)NC(=O)[C@H](Cc1ccc(O)cc1)NC(=O)[C@@H](NC(=O)[C@H](CO)NC(=O)[C@H](Cc1ccc(O)cc1)NC(=O)[C@H](CC(=O)O)NC(=O)[C@H](CO)NC(=O)[C@@H](NC(=O)[C@H](Cc1ccccc1)NC(=O)[C@@H](NC(=O)CNC(=O)[C@H](CCC(N)=O)NC(=O)C(C)(C)NC(=O)[C@@H](N)Cc1ccc(O)cc1)[C@@H](C)O)[C@@H](C)O)[C@@H](C)CC)C(C)C)C(N)=O [mt-286] | 0.0612 | 84.80 | 0.0225 | 52.00 | 68.55 | exhibited activity at the GIP, GLP-1, and glucagon receptors | 0.0159
4 | CCCCCCCCCCCCCCCC(=O)NCCCC[C@H](NC(=O)[C@H](CO)NC(=O)[C@@H]1CCCN1C(=O)[C@@H]1CCCN1C(=O)[C@@H]1CCCN1C(=O)[C@H](C)NC(=O)CNC(=O)[C@H](CO)NC(=O)[C@H](CO)NC(=O)[C@@H]1CCCN1C(=O)CNC(=O)CNC(=O)[C@H](C)NC(=O)[C@H](CC(C)C)NC(=O)[C@H](CC(C)C)NC(=O)[C@H](Cc1c[nH]c2ccccc12)NC(=O)[C@H](CS)NC(=O)[C@@H](NC(=O)[C@H](Cc1ccccc1)NC(=O)[C@H](CCC(=O)O)NC(=O)C(C)(C)NC(=O)[C@H](C)NC(=O)[C@H](C)NC(=O)[C@H](CCC(N)=O)NC(=O)[C@H](CCCCN)NC(=O)[C@H](CC(=O)O)NC(=O)[C@H](CC(C)C)NC(=O)[C@H](Cc1ccc(O)cc1)NC(=O)[C@@H](NC(=O)[C@H](CO)NC(=O)[C@H](Cc1ccc(O)cc1)NC(=O)[C@H](CC(=O)O)NC(=O)[C@H](CO)NC(=O)[C@@H](NC(=O)[C@H](Cc1ccccc1)NC(=O)[C@@H](NC(=O)CNC(=O)[C@H](CCC(N)=O)NC(=O)C(C)(C)NC(=O)[C@@H](N)Cc1ccc(O)cc1)[C@@H](C)O)[C@@H](C)O)[C@@H](C)CC)C(C)C)C(N)=O [mt-287] | 0.0187 | 277.54 | 0.0124 | 94.35 | 117.20 | exhibited activity at the GIP, GLP-1, and glucagon receptors | 0.0093
5 | CCCCCCCCCCCCCCCCCC(=O)NCCCC[C@H](NC(=O)[C@H](CO)NC(=O)[C@@H]1CCCN1C(=O)[C@@H]1CCCN1C(=O)[C@@H]1CCCN1C(=O)[C@H](C)NC(=O)CNC(=O)[C@H](CO)NC(=O)[C@H](CO)NC(=O)[C@@H]1CCCN1C(=O)CNC(=O)CNC(=O)[C@H](C)NC(=O)[C@H](CC(C)C)NC(=O)[C@H](CC(C)C)NC(=O)[C@H](Cc1c[nH]c2ccccc12)NC(=O)[C@H](CS)NC(=O)[C@@H](NC(=O)[C@H](Cc1ccccc1)NC(=O)[C@H](CCC(=O)O)NC(=O)C(C)(C)NC(=O)[C@H](C)NC(=O)[C@H](C)NC(=O)[C@H](CCC(N)=O)NC(=O)[C@H](CCCCN)NC(=O)[C@H](CC(=O)O)NC(=O)[C@H](CC(C)C)NC(=O)[C@H](Cc1ccc(O)cc1)NC(=O)[C@@H](NC(=O)[C@H](CO)NC(=O)[C@H](Cc1ccc(O)cc1)NC(=O)[C@H](CC(=O)O)NC(=O)[C@H](CO)NC(=O)[C@@H](NC(=O)[C@H](Cc1ccccc1)NC(=O)[C@@H](NC(=O)CNC(=O)[C@H](CCC(N)=O)NC(=O)C(C)(C)NC(=O)[C@@H](N)Cc1ccc(O)cc1)[C@@H](C)O)[C@@H](C)O)[C@@H](C)CC)C(C)C)C(N)=O [mt-288] | 0.0207 | 250.72 | 0.0138 | 84.78 | 79.56 | exhibited activity at the GIP, GLP-1, and glucagon receptors | 0.0137
